Literature values as cited in patent US20160250192A1, “PRODUCTION METHOD OF PHARMACEUTICAL COMPOSITION CONTAINING CANDESARTAN CILEXETIL” (Sawai Pharmaceutical Co., Ltd., priority 2013, published 2016).

## CCOc1nc2cccc(C(=O)OC(C)OC(=O)OC3CCCCC3)c2n1Cc1ccc(-c2ccccc2-c2nnn[nH]2)cc1 (racemic) [Candesartan cilexetil, (RS)-1-[(cyclohexyloxy)carbonyloxy]ethyl 2-ethoxy-1-{[2′-(1H-tetrazole-5-yl)-biphenyl-4-yl]methyl}-1H-benzimidazole-7-carboxylate]
  solubility in water: poorly soluble
